Source: patent US7709606B2, “Interacting polypeptide comprising a heptapeptide pattern and a cellular penetration domain” (Ecole Normale Superieure de Lyon, priority 2003, dated 2010)
pEC50: −log10 of the molar value. Where two headings read alike, the source gives them in different places.

How the values were obtained:
[1] = test system: HIV-1/Ba-L; test: antiviral test in monocyte-derived macrophages (MDM), RT activity; assay type: cell-based; settings: for anti-HIV activity, HIV-1/Ba-L replication: MDM, in words; for Percentage inhibition, Mean / ED70 / ED90 / pEC50: MDMs, HIV-1/Ba-L; for pEC50: Human immunodeficiency virus 1, BAL, Macrophage, read-out: ED50 (the source's name)
Procedure: (§1) These viruses were amplified in vitro with umbilical blood mononuclear cells (UBMC) activated with PHA-P. The cell-free supernatant was centrifuged at […] for 10 minutes to eliminate soluble factors, and the residue was re-suspended in cell culture medium. Virus stocks were titrated using PBMC cells activated with PHA-P and 50% tissue culture infectious doses (TCID50) were calculated using Kärber's formula.
The MDM cells were pre-treated for 30 minutes in 6 concentrations of different molecules and infected with 30000 TCID50 of the HIV-1/Ba-L strain. AZT (0.8, 4, 20, 100 and 500 nM) and indinavir (0.8, 4, 20, 100 and 500 nM) were used as the control. […] The molecules were maintained for 7 days post infection, and the cellular supernatant was harvested 7, 14 and 21 days post infection and stored at −20° C. to measure viral replication by reverse transcriptase activity (RT) assay.
(§2) HIV replication was analyzed by assaying the RT activity in the supernatants from cell cultures using the RetroSys RT kit (Innovagen). The experiments were carried out 3 times and the results are expressed as the mean of the RT activity±the standard deviation (SD).

[2] = test system: HIV-1-LA1; test: antiviral test in PHA-P activated PBMC, RT activity; assay type: cell-based; settings: for anti-HIV activity, replication of HIV-1-LA1: PBMC activated by PHA-P, 7th day, in words; for Percentage inhibition, Mean: HIV-1 LA1, day 7
Procedure: as §1
PBMC cells were pre-treated for 30 minutes by 5 concentrations of each molecule and infected with 75 TCID50 of the HIV-1-LA1 strain. AZT (1.6, 8, 40, 200 and 1000 nM) and indinavir (1.6, 8, 40, 200 and 1000 nM) were used as the control. […] The molecules were maintained throughout culture, and the cellular supernatant was harvested 7 days post infection and stored at −20° C. to measure viral replication by reverse transcriptase activity (RT) assay.
as §2
In a last step, it was examined whether SHPs were actually capable of inhibiting HIV-1 replication. This was carried out in PBMCs activated by PHA-P and in MDMs. […] The effects of different SHPs was thus tested at this time. AZT and indinavir were used as controls.

Row | Structure (SMILES) | anti-HIV activity, HIV-1/Ba-L replication [1] | Percentage inhibition, Mean ([1]; Day 7, dose 0.8 (nM)) [%] | Percentage inhibition, Mean ([1]; Day 7, dose 4 (nM)) [%] | Percentage inhibition, Mean ([1]; Day 7, dose 20 (nM)) [%] | Percentage inhibition, Mean ([1]; Day 7, dose 100 (nM)) [%] | Percentage inhibition, Mean ([1]; Day 7, dose 500 (nM)) [%] | ED70 ([1]; Day 14) [nM] | ED90 ([1]; Day 14) [nM] | Percentage inhibition, Mean ([1]; Day 14, dose 0.8 (nM)) [%] | Percentage inhibition, Mean ([1]; Day 14, dose 4 (nM)) [%] | Percentage inhibition, Mean ([1]; Day 14, dose 20 (nM)) [%] | Percentage inhibition, Mean ([1]; Day 14, dose 100 (nM)) [%] | Percentage inhibition, Mean ([1]; Day 14, dose 500 (nM)) [%] | Percentage inhibition, Mean ([1]; Day 21, dose 0.8 (nM)) [%] | Percentage inhibition, Mean ([1]; Day 21, dose 4 (nM)) [%] | Percentage inhibition, Mean ([1]; Day 21, dose 20 (nM)) [%] | Percentage inhibition, Mean ([1]; Day 21, dose 100 (nM)) [%] | Percentage inhibition, Mean ([1]; Day 21, dose 500 (nM)) [%] | anti-HIV activity, replication of HIV-1-LA1 [2] | ED70 ([2]; PBMCs, HIV-1-LA1, 7th day) [nM] | other results
1 | Cc1cn([C@H]2C[C@H](N=[N+]=[N-])[C@@H](CO)O2)c(=O)[nH]c1=O [AZT, reference compound] | reduced in a dose-dependent manner | 76 | 72 | 87 | 88 | 93 | 9 | 64 | 0 | 55 | 82 | 92 | 100 | 0 | 0 | 68 | 81 | 100 | effectively inhibited | 13.5 | ED90 ([2]; PBMCs, HIV-1-LA1, 7th day): 19 nM; Percentage inhibition, Mean ([2]; PBMCs, Dose 1.6 (nM)): 0%; Percentage inhibition, Mean ([2]; PBMCs, Dose 8 (nM)): 81%; Percentage inhibition, Mean ([2]; PBMCs, Dose 40 (nM)): 98%; Percentage inhibition, Mean ([2]; PBMCs, Dose 200 (nM)): 98%; Percentage inhibition, Mean ([2]; PBMCs, Dose 1000 (nM)): 100%
2 | CC(C)(C)NC(=O)[C@@H]1CN(Cc2cccnc2)CCN1C[C@@H](O)C[C@@H](Cc1ccccc1)C(=O)N[C@H]1c2ccccc2C[C@H]1O [IDV, indinavir, reference compound] | reduced in a dose-dependent manner | 59 | 69 | 90 | 93 | 97 | 26.5 | 34.5 | 0 | 0 | 68 | 100 | 100 | 0 | 0 | 47 | 96 | 100 | effectively inhibited | 18 | pEC50 ([1]; 336 h, Day 14): 7.66; pEC50 ([1]; 504 h, Day 21): 7.66; ED70 ([1]; Day 21): 32 nM; ED90 ([1]; Day 21): 62 nM; pEC50 ([2]; Human immunodeficiency virus 1, PBMC, PBMCs, HIV-1-LA1, 7th day, read-out: ED50 (the source's name)): 7.85; ED90 ([2]; PBMCs, HIV-1-LA1, 7th day): 25.5 nM; Percentage inhibition, Mean ([2]; PBMCs, Dose 1.6 (nM)): 0%; Percentage inhibition, Mean ([2]; PBMCs, Dose 8 (nM)): 67%; Percentage inhibition, Mean ([2]; PBMCs, Dose 40 (nM)): 92%; Percentage inhibition, Mean ([2]; PBMCs, Dose 200 (nM)): 100%; Percentage inhibition, Mean ([2]; PBMCs, Dose 1000 (nM)): 100%
